We go through one compound from patent publication US20260137698A1, “CYCLIN-DEPENDENT KINASE 7 INHIBITORS” (JOINT STOCK COMPANY «BIOCAD», priority 2022, published 2026).

This assay has as its system NCI-H69 xenografts (small cell lung cancer). Nature of the assay: Antitumor activity in vivo, subcutaneous NCI-H69 xenograft model. Details: species or system BALB/c Nude mice. The procedure:
The antitumor activity of CDK7_1187 in vivo was evaluated on a subcutaneous xenograft model of the NCl-H69 line (small cell lung cancer, ATCC® HTB-119™) transplanted to BALB/c Nude mice.
NCl-H69 cell line was cultured in RPMI-1640 medium (PanEco, Russia) with enrichment of the basal growth medium with L-glutamine at a concentration of 2 mM (PanEco, Russia) and 10% fetal bovine serum (Gibco, Thermo Fisher Scientific, USA).
The study used 20 BALB/c Nude mice (females) obtained from the Federal State Budgetary Scientific Institution “Federal Research Center Institute of Cytology and Genetics, Siberian Branch of Russian Academy of Sciences” (ICG SB RAS). BALB/c Nude mice were subcutaneously administered into the right lateral side of the body with […] of suspension containing 5×10^6 NCI-H69 tumor cells and Matrigel (Corning® Matrigel® Basement Membrane Matrix) at 1:1 ratio.
Linear dimensions of the tumor were determined using an electronic caliper. Volume of the tumor node was determined by the formula (1):
[formula] • where L and W are large and small diameters of the tumor node, respectively.
The efficacy of test product was measured by the index of tumor growth inhibition (TGI, %) calculated according to the formula (2):
[formula] • where Vc and Vp are mean volumes of the tumor node in the control group and the group of animals that received the test substance, respectively.
After achieving an average tumor volume of 130 mm^3, animals were divided into 2 groups of 10 animals, volume of the tumor node was used as a randomization criterion. The day of the first administration of the product was designated as day 0.
Test substance CDK7_1187 was administered intragastrically at a dose of 6 mg/kg daily, for 21 days. Before each administration, CDK7_1187 was diluted in 5% solution of glucose (Solopharm, Russia) and 0.1% solution of DMSO (Sigma, USA). The control group received a 5% solution of glucose and a 0.1% solution of DMSO in an analogous volume.
Statistical analysis was carried out using the GraphPad Prism 9 software package. Mann-Whitney U test was employed to assess the significance of differences when comparing the volumes of tumor nodes. Differences were identified as significant if p<0.05.

Structures are written as SMILES.

As to `CN1CCCc2c(-c3nc(N[C@H]4CCC(C)(C)NC4)ncc3C(F)(F)F)c[nH]c2C1=O` [CDK7_1187, 3-(2-{[(3S)-6,6-dimethylpiperidin-3-yl]amino}-5-(trifluoromethyl)py-rimidin-4-yl)-7-methyl-1H,4H,5H,6H,7H, 8H-pyrrolo[2,3-c]azepin-8-one], the “tumor volume versus control group” value (6 mg/kg daily, days 17 and 21, Mann-Whitney p<0.05) was “statistically significantly less”. The “index of tumor growth inhibition (TGI)” value (BALB/c Nude mice, 6 mg/kg intragastrically daily for 21 days, end of the observation period) is 48%. In addition, the TGI index by setting is: (Day 9, intragastrically 6 mg/kg daily) 10%; (Day 13, intragastrically 6 mg/kg daily) 36%; (Day 17, intragastrically 6 mg/kg daily) 40%; (Day 21, intragastrically 6 mg/kg daily) 48%.
